From US20040235855A1, “Phospholipase C inhibitors for use in treating inflammatory disorders” (priority 2003, published 2004) come the findings set out here.

A word on the IC50: it is the concentration needed to halve the response being measured.

Molecules are shown by their SMILES. Bounds are passed on as bounds.

The assay addresses T1, human PLC-β2 (Homo sapiens, UniProt Q00722).
T1 construct: made in house; host or cells: Sf9 cells (Spodoptera frugiperda), recombinant baculovirus
In words: PLC assay using FlashPlates (96-well, immobilized [3H]PIP2 substrate). The note with it: purified recombinant human PLC-β2 or cytosolic human PLC-β2; hydrolysis of [3H]PIP2. Format: biochemical. From the text: The hydrolysis of phosphatidylinositol-4,5-bisphosphate (PIP2) by a specific phospholipase C-β2 (PLC-β2) produces two intracellular messengers, diacylglycerol (DAG) and inositol 1,4,5-trisphosphate (IP3), which mediate the activation of protein kinase C and intracellular Ca^2+ release. A conventional organic solvent extraction method is widely used for PLC assays to isolate IP3 from the substrate PIP2. The conventional PLC-β2 assay, however is terminated by addition of acidified organic solvents and subsequent extraction and phase separation. […] Accordingly, a preferred method to test the compounds of the present invention, was developed utilizing a 96-well plate assay for PLC-β2 using immobilized radiolabeled substrate to quantitatively measure the reduction in the substrate level without a need for organic solvent extraction. The automated PLC-β2 assay described herein provides a convenient method for quantitative measurement of phospholipase C activities in a high throughput fashion. Ninety-six well Phospholipid FlashPlates were coated with 0.2 mL of 50 mM Tris/HCl (pH 7.4), 0.01% Ac-BSA and 50,000 cpm of […] (phosphatidylinositol-4,5-bisphosphate) at 4° C. for 72 h. The wells were aspirated and washed twice with PBS. The reactions were conducted directly in the wells in PLC reaction buffer containing 50 mM Tris/HCl (pH 7.2), 2.75 mM EDTA (pH 7.3), 80 mM KCl, 10 mM LiCl, 0.04% DOC and 2 mM CaCl2 in the absence or presence of the purified recombinant human PLC-β2 (prepared as described hereafter) or cytosolic human PLC-β2 from […]. Reduction of radioactivity was monitored by a Packard TopCount instrument (Packard Instrument Company, Conn., USA). […] The cells were grown in Grace's media supplemented with 10% (v/v) fetal bovine serum, 3.3 g/l yeastolate, 3.3 g/l lactalbumin hydrosylate, glutamine (6.4 mM final), 50 μg/ml gentamicin, and 50 μg/ml kanamycin. Suspension of Sf9 cells (1.0×10^6 cells/ml) were infected with 5 pfu/cell of recombinant baculovirus encoding PLC-β2 and incubated at 27° C. for 72 h. The cells were collected by centrifugation (500×g, 7 min, 4° C.) and disrupted by hypotonic lysis buffer containing 20 mM Tris/HCl, pH 7.4, 5 mM MgCl2, 2 mM EGTA, 200 μM PMSF, 200 μM benzamidine and 1 μM pepstatin A. The lysate was sonicated on ice and the nuclei and unbroken cells removed by centrifigation (500×g, 5 min, 4C.). The supernatant was recovered and clarified by centrifugation (34,000 rpm, 60 min, 4C.). The supernatant was used as a crude cytosolic fraction (Paterson, A., Boyer, J. L., Watts, V. J., Morris, A. J., Price, […]. (1995) Concentration of enzyme-dependent activation of PLC β1 and PLC β2 by Gα11 and βγ subunits. Cellular Signalling 7, 709-720). Crude cytosol prepared from Sf9 cells expressing PLC-β2 was purified initially by chromatography on a 10 ml column of Q-Sepharose FF, equilibrated in buffer A (25 mM HEPES, pH 7.2,2 mM DTT, 2 mM EDTA, 2 mM EGTA, 200 μM PMSF, 200 μM benzamidine, 1 μM pepstatin A containing 10 mM NaCl). The column was washed with 20 ml of equilibration buffer and eluted with a 200-ml gradient of 110-410 mM NaCl in buffer A. The fractions containing PLC activity were pooled and diluted with buffer A. The diluted enzyme was applied to a 4 ml column of heparin-SepharoseCL-6B equilibrated in buffer A and the column washed with 70 ml of buffer A. The column was eluted with 80 ml of gradient of 0-1.0 M NaCl in buffer A, the column eluate collected in 3 ml fractions. […]

T1 sequence (Q00722 whole entry): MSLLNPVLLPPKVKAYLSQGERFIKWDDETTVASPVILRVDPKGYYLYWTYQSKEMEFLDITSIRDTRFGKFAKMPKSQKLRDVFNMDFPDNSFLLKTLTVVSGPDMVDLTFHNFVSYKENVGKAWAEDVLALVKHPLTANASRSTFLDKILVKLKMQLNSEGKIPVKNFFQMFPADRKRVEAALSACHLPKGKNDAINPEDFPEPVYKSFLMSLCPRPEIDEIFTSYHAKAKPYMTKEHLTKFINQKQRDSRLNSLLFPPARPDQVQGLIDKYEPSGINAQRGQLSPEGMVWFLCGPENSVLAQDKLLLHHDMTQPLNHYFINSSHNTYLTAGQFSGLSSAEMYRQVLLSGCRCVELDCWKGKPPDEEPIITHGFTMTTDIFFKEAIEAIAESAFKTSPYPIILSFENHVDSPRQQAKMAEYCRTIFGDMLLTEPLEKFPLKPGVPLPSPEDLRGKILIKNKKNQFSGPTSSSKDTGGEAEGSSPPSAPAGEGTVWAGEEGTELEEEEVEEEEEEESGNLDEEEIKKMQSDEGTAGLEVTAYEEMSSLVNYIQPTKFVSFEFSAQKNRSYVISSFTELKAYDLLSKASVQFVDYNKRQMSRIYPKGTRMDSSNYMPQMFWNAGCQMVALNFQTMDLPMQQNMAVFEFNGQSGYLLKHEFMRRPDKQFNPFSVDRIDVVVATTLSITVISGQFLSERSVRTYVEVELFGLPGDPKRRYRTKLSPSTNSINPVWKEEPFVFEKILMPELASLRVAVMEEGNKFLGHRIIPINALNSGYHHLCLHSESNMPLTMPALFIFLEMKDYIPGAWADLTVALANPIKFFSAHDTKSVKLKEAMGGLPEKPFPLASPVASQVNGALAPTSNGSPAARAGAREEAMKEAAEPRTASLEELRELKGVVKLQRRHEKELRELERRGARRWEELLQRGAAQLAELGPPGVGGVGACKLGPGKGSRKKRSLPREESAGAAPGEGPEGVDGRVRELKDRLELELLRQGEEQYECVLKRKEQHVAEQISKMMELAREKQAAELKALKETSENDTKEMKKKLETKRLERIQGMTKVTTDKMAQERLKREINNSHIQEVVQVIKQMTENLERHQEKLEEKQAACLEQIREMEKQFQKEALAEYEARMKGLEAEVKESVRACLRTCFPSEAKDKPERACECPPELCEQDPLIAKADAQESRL

`CN1CCN(C(=O)c2ccc(N3CCN(C(c4ccccc4)c4ccccc4)CC3)c(NC(=O)NC3CCCCC3)c2)CC1` [Cpd 28, N-cyclohexyl-N′-[2-[4-(diphenylmethyl)-1-piperazinyl]-5-[(4-methyl-1-piperazinyl)carbonyl]-phenyl]urea]: the IC50 stood at 5.6 µM.

For the compound `CN(C)CCNC(=O)c1ccc(N2CCN(C(c3ccccc3)c3ccccc3)CC2)c(NC(=O)Nc2ccccc2)c1` [Cpd 29, N-[2-(dimethylamino)ethyl]-4-[4-(diphenylmethyl)-1-piperazinyl]-3-[[(phenylamino)carbonyl]amino]-benzamide], the IC50 was 3.3 µM. On to `CN(C)CCNC(=O)c1ccc(N2CCN(C(c3ccccc3)c3ccccc3)CC2)c(NC(=O)NC2CCCCC2)c1` [Cpd 30, 3-[[(cyclohexylamino)carbonyl]amino]-N-[2-(dimethylamino)ethyl]-4-[4-(diphenylmethyl)-1-piperazinyl]-benzamide], for which the IC50 worked out at 9.8 µM. Then `CN1CCCN(C(=O)c2ccc(N3CCN(C(c4ccccc4)c4ccccc4)CC3)c(NC(=O)NC3CCCCC3)c2)CC1` [Cpd 31, N-cyclohexyl-N′-[2-[4-(diphenylmethyl)-1-piperazinyl]-5-[(hexahydro-4-methyl-1H-1,4-diazepin-1-yl)carbonyl]phenyl]-urea], with 6.6 µM; and `CC(C)C[C@H](NC(=O)c1ccc(N2CCN(C(c3ccccc3)c3ccccc3)CC2)c(NC(=O)Nc2ccccc2)c1)C(=O)O` [Cpd 32, N-[4-[4-(diphenylmethyl)-1-piperazinyl]-3-[[(phenylamino)carbonyl]amino]benzoyl]-L-leucine], with 3.9 µM; and `O=C(NCc1ccccc1)Nc1cc(C(=O)N2CCNCC2)ccc1N1CCN(C(c2ccccc2)c2ccccc2)CC1` [Cpd 39, N-[2-[4-(diphenylmethyl)-1-piperazinyl]-5-(1-piperazinylcarbonyl)phenyl]-N′-(phenylmethyl)urea], with 4.2 µM. In the case of `Cc1ccc(NC(=O)Nc2cc(C(=O)N3CCNCC3)ccc2N2CCN(C(c3ccccc3)c3ccccc3)CC2)c(C)c1` [Cpd 41, N-(2,4-dimethylphenyl)-N′-[2-[4-(diphenylmethyl)-1-piperazinyl]-5-(1-piperazinylcarbonyl)phenyl]-urea], the IC50 came to 1.6 µM. As to `Cc1cc(C)cc(NC(=O)Nc2cc(C(=O)N3CCNCC3)ccc2N2CCN(C(c3ccccc3)c3ccccc3)CC2)c1` [Cpd 42, N-(3,5-dimethylphenyl)-N′-[2-[4-(diphenylmethyl)-1-piperazinyl]-5-(1-piperazinylcarbonyl)phenyl]-urea], the IC50 came out at 5.6 µM.

For the compound `COc1ccc(NC(=O)Nc2cc(C(=O)N3CCNCC3)ccc2N2CCN(C(c3ccccc3)c3ccccc3)CC2)cc1` [Cpd 43, N-[2-[4-(diphenylmethyl)-1-piperazinyl]-5-(1-piperazinylcarbonyl)phenyl]-N′-(4-methoxyphenyl)urea], the IC50 came to 5.7 µM. As to `O=C(Nc1ccccc1)Nc1cc(C(=O)N2CCNCC2)ccc1N1CCN(C2c3ccccc3-c3ccccc32)CC1` [Cpd 44, N-[2-[4-(9H-fluoren-9-yl)-1-piperazinyl]-5-(1-piperazinylcarbonyl)phenyl]-N′-phenylurea], the half-inhibitory concentration (IC50) stood at 2.3 µM. Regarding `O=C(Nc1cc(C(=O)N2CCNCC2)ccc1N1CCN(C(c2ccccc2)c2ccc(Cl)cc2)CC1)NC1CCCCC1` (stereo not shown) [Cpd 45, N-[2-[4-[(4-chlorophenyl)phenylmethyl]-1-piperazinyl]-5-(1-piperazinylcarbonyl)phenyl]-N′-cyclohexyl-urea], the half-maximal inhibitory concentration (IC50) was 2.2 µM. Then `O=C(Nc1ccccc1)Nc1cc(C(=O)N2CCNCC2)ccc1N1CCN(C(c2ccc(F)cc2)c2ccc(F)cc2)CC1` [Cpd 46, N-[2-[4-[bis(4-fluorophenyl)methyl]-1-piperazinyl]-5-(1-piperazinylcarbonyl)phenyl]-N′-phenylurea], with 1.7 µM. Then `O=C(Nc1cc(C(=O)N2CCNCC2)ccc1N1CCN(C(c2ccc(F)cc2)c2ccc(F)cc2)CC1)NC1CCCCC1` [Cpd 47, N-[2-[4-[bis(4-fluorophenyl)methyl]-1-piperazinyl]-5-(1-piperazinylcarbonyl)phenyl]-N′-cyclohexylurea], with 4.2 µM. Consider `CC(c1ccccc1)N1CCN(c2ccc(C(=O)N3CCNCC3)cc2NC(=O)Nc2ccccc2)CC1` (stereo not shown) [Cpd 48, N-phenyl-N′-[2-[4-(1-phenylethyl)-1-piperazinyl]-5-(1-piperazinylcarbonyl)phenyl]-urea], for which the half-maximal inhibitory concentration (IC50) was more than 25 µM. Then `COc1ccccc1N1CCN(c2ccc(C(=O)N3CCNCC3)cc2NC(=O)Nc2ccccc2)CC1` [Cpd 49, N-[2-[4-(2-methoxyphenyl)-1-piperazinyl]-5-(1-piperazinylcarbonyl)phenyl]-N′-phenylurea], with more than 25 µM; and `O=C(Nc1ccccc1)Nc1cc(C(=O)N2CCNCC2)ccc1N1CCN(Cc2ccccc2)CC1` [Cpd 50, N-phenyl-N′-[2-[4-(phenylmethyl)-1-piperazinyl]-5-(1-piperazinylcarbonyl)phenyl]-urea], with more than 25 µM; and `O=C(Nc1ccccc1)Nc1cc(C(=O)N2CCNCC2)ccc1N1CCN(C2CCCCC2)CC1` [Cpd 51, N-[2-(4-cyclohexyl-1-piperazinyl)-5-(1-piperazinylcarbonyl)phenyl]-N′-phenylurea], with more than 25 µM. Consider `O=C(Nc1cc(C(=O)N2CCNCC2)ccc1N1CCN(Cc2ccccc2)CC1)NC1CCCCC1` [Cpd 52, N-cyclohexyl-N′-[2-[4-(phenylmethyl)-1-piperazinyl]-5-(1-piperazinylcarbonyl)phenyl]-urea], for which the IC50 was more than 25 µM. Next, `CC(c1ccccc1)N1CCN(c2ccc(C(=O)N3CCNCC3)cc2NC(=O)NC2CCCCC2)CC1` (stereo not shown) [Cpd 53, N-cyclohexyl-N′-[2-[4-(1-phenylethyl)-1-piperazinyl]-5-(1-piperazinylcarbonyl)phenyl]-urea]: more than 25 µM; `O=C(Nc1cc(C(=O)N2CCNCC2)ccc1N1CCN(C2CCCCC2)CC1)NC1CCCCC1` [Cpd 54, N-cyclohexyl-N′-[2-(4-cyclohexyl-1-piperazinyl)-5-(1-piperazinylcarbonyl)phenyl]-urea]: more than 25 µM; `COc1ccccc1N1CCN(c2ccc(C(=O)N3CCNCC3)cc2NC(=O)NC2CCCCC2)CC1` [Cpd 55, N-cyclohexyl-N′-[2-[4-(2-methoxyphenyl)-1-piperazinyl]-5-(1-piperazinylcarbonyl)phenyl]-urea]: more than 25 µM.

Regarding `CCCCNC(=O)Nc1cc(C(=O)N2CCNCC2)ccc1N1CCN(C(c2ccccc2)c2ccccc2)CC1` [Cpd 56, N-butyl-N′-[2-[4-(diphenylmethyl)-1-piperazinyl]-5-(1-piperazinylcarbonyl)phenyl]-urea], the IC50 was more than 25 µM.

`O=C(Nc1ccccc1F)Nc1cc(C(=O)N2CCNCC2)ccc1N1CCN(C(c2ccccc2)c2ccccc2)CC1` [Cpd 57, N-[2-[4-(diphenylmethyl)-1-piperazinyl]-5-(1-piperazinylcarbonyl)phenyl]-N′-(2-fluorophenyl)urea]: the IC50 is 2.5 µM. `CN(C)c1ccc(NC(=O)Nc2cc(C(=O)N3CCNCC3)ccc2N2CCN(C(c3ccccc3)c3ccccc3)CC2)cc1` [Cpd 58, N-[4-(dimethylamino)phenyl]-N′-[2-[4-(diphenylmethyl)-1-piperazinyl]-5-(1-piperazinylcarbonyl)phenyl]-urea]: the IC50 was determined as 7.8 µM. Take `COc1ccccc1NC(=O)Nc1cc(C(=O)N2CCNCC2)ccc1N1CCN(C(c2ccccc2)c2ccccc2)CC1` [Cpd 59, N-[2-[4-(diphenylmethyl)-1-piperazinyl]-5-(1-piperazinylcarbonyl)phenyl]-N′-(2-methoxyphenyl)-urea]: the IC50 was 5.4 µM.
